{
  "source": "patent US20240125803A1",
  "about": "“NOVEL DIAGNOSTIC AND METHOD OF SCREENING THERAPEUTICS FOR FIBROTIC CONDITIONS” (BLR-Bio, LLC, priority 2022, published 2024)",
  "key": {"[1]": {"system": "fibrosis-related gene expression", "assay": "Bleomycin-induced skin fibrosis, 21 days: bulk RNAseq of skin", "assay_type": "in vivo, C57BL/6J mice", "conditions": "d21, n=2", "procedure": "6-week-old C57BL/6J mice were subjected to bleomycin treatment (subcutaneous injection 0.1 U/100 μl/mouse daily) in the presence or absence of BLR200 (intraperitoneal injection 10 μg/kg every other day) for 21 days. For a reversal of fibrosis experiment, BLR200 treatment was started at d14 of bleomycin treatment and continued until d28. Fibrosis was assessed by histological, and unbiased bulk RNAseq, real-time polymerase chain reaction and spatial transcriptomic analyses.\nUnbiased cluster analysis of bulk RNAseq data was performed using the Database for Annotation, Visualization and Integrated Discovery (DAVID). Clusters relate to fibrosis with the enrichment score and #of genes greater than 1.0 and 10, respectively, were chosen. n=2."}, "CCN2": {"molecular_target": "T1, CCN2 (Mus musculus, UniProt P29268)", "T1 construct": "FG-3019 treatment mitigated Ang II-induced fibrosis, as visualized by a reduction in skin thickness; host or cells: animals of the Ang II-induced dermal fibrosis model (endogenous protein)", "T1 sequence (P29268 26-348)": "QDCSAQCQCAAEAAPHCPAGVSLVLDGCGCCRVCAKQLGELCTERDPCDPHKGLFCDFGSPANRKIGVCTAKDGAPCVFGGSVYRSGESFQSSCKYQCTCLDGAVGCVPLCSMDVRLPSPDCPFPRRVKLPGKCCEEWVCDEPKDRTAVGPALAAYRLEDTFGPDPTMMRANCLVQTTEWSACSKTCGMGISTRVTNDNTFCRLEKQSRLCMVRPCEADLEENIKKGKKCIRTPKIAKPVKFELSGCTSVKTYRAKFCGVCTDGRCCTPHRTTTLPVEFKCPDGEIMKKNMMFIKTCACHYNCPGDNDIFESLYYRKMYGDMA", "conditions": "Makino et al., 2017; cited from earlier work"}, "[2]": {"system": "fibrosis in diabetic nephropathy", "conditions": "Riser et al., 2014; cited from earlier work"}},
  "data": [
    {"molecule": "Bleomycin sulfate", "values": [
      {"measurement": "Fold Chance, ADAM10", "setting": "[1]", "result": 3.68, "unit": "Fold"},
      {"measurement": "Fold Chance, ADAMTS4", "setting": "[1]", "result": 4.29, "unit": "Fold"},
      {"measurement": "Fold Chance, ADAMTS9", "setting": "[1]", "result": 4.46, "unit": "Fold"},
      {"measurement": "Fold Chance, ADAMTS20", "setting": "[1]", "result": 11.3, "unit": "Fold"},
      {"measurement": "Fold Chance, CDH11", "setting": "[1]", "result": 11.3, "unit": "Fold"},
      {"measurement": "Fold Chance, CITED2", "setting": "[1]", "result": 6.43, "unit": "Fold"},
      {"measurement": "Fold Chance, ELK1", "setting": "[1]", "result": 3.69, "unit": "Fold"},
      {"measurement": "Fold Chance, FN1", "setting": "[1]", "result": 5.12, "unit": "Fold"},
      {"measurement": "Fold Chance, FZD6", "setting": "[1]", "result": 22.4, "unit": "Fold"},
      {"measurement": "Fold Chance, ITGA6", "setting": "[1]", "result": 4.46, "unit": "Fold"},
      {"measurement": "Fold Chance, ITGAE", "setting": "[1]", "result": 3.68, "unit": "Fold"},
      {"measurement": "Fold Chance, PECAM1", "setting": "[1]", "result": 4.29, "unit": "Fold"},
      {"measurement": "Fold Chance, SMAD3", "setting": "[1]", "result": 3.07, "unit": "Fold"},
      {"measurement": "Fold Chance, TNC", "setting": "[1]", "result": 3.13, "unit": "Fold"},
      {"measurement": "Fold Chance, WNT4", "setting": "[1]", "result": 3.07, "unit": "Fold"},
      {"measurement": "Fold Chance, WNT7a", "setting": "[1]", "result": 5.81, "unit": "Fold"},
      {"measurement": "Fold Chance, YAP1 (Yes-associated protein 1)", "setting": "[1]", "result": 8.61, "unit": "Fold"}
    ]},
    {"molecule": "FG-3019: monoclonal antibody targeting CCN2", "values": [
      {"measurement": "Ang II-induced fibrosis (skin thickness, collagen deposition, number of αSMA-expressing myofibroblasts)", "setting": "CCN2", "result": "mitigated"}
    ]},
    {"molecule": "rhCCN3: recombinant human CCN3 (protein, UniProt P48745 32-357, looked up) CCN family member 3: TQRCPPQCPGRCPATPPTCAPGVRAVLDGCSCCLVCARQRGESCSDLEPCDESSGLYCDRSADPSNQTGICTAVEGDNCVFDGVIYRSGEKFQPSCKFQCTCRDGQIGCVPRCQLDVLLPEPNCPAPRKVEVPGECCEKWICGPDEEDSLGGLTLAAYRPEATLGVEVSDSSVNCIEQTTEWTACSKSCGMGFSTRVTNRNRQCEMLKQTRLCMVRPCEQEPEQPTDKKGKKCLRTKKSLKAIHLQFKNCTSLHTYKPRFCGVCSDGRCCTPHNTKTIQAEFQCSPGQIVKKPVMVIGTCTCHTNCPKNNEAFLQELELKTTRGKM", "values": [
      {"measurement": "fibrosis in a mouse model of diabetic nephropathy", "setting": "[2]", "result": "block and reverse fibrosis"}
    ]}
  ]
}
